Experimental data as given in patent publication US20200261391A1, “METHODS OF REDUCING THE RISK OF A CARDIOVASCULAR EVENT IN A STATIN-TREATED SUBJECT BY INCREASING SERUM AND PLASMA EPA AND DPA LEVELS” (Amarin Pharmaceuticals Ireland Limited, priority 2019, published 2020).

Tests used:
Assay type in all cases: in vivo, human
[1] = system: patients with elevated triglyceride levels on statin therapy; assay: REDUCE-IT endpoints by EPA blood level tertile in the icosapent ethyl group compared to placebo; settings: averaged upper EPA tertile vs below the upper tertile
Protocol: To assess the relationship between on-treatment hsCRP and the primary and key secondary endpoints, subgroup analyses were carried out as done for the ITT population for patients grouped according to values greater or equal to or less than […] at baseline and at 2 years. To assess the relationship between on-treatment serum EPA and the primary and key secondary endpoints, Kaplan-Meier (KM) curves were produced for AMR101 treated patients grouped into tertiles based on their values at year 1 and were compared with the placebo-treated patients.
This is a study aimed towards determining a relative risk reduction (RRR) between subjects stratified by EPA tertiles in the REDUCE-IT clinical trial described above in Example 1. Samples were obtained from those subjects and total EPA and AA levels in human serum and plasma samples were determined according at least to the methods described in Example 7.
(§1) The objective of this study is to assess the effects of administering icosapent ethyl at 4 g per day to patients from the REDUCE-IT trial of Example 1. More specifically, patients from the REDUCE-IT trial of Example 1 were stratified by their EPA levels into one of three tertiles. Following stratification, the objective was to determine if the RRR differs between patients having EPA levels in the three different tertiles. For the data collected as shown in Tables 38-43 and FIGS. 52, 53, and 56-59, the tertiles were established based on data collected from subjects at 1 year, 2 years, and last visit following icosapent ethyl administration compared to placebo. Data are presented as an average of 1 year, 2 year, […], and end of study values. The data was further analyzed use both pooled and unpooled statistically methods.

[2] = system: patients with elevated triglyceride levels on statin therapy; assay: REDUCE-IT endpoints by pooled (icosapent ethyl and placebo) EPA blood level tertile
Source text: as §1
(0.84 for lowest vs. placebo, 0.72 for middle vs. placebo, and 0.65 for highest vs. placebo).

[3] = system: patients with elevated triglyceride levels on statin therapy; assay: REDUCE-IT endpoints by pooled (icosapent ethyl and placebo) EPA/AA ratio tertile
Source text: as §1
Placebo and icosapent ethyl treated subjects were pooled and stratified based on EPA/AA tertiles with […], […], and the highest […]

[4] = system: patients with elevated triglyceride levels on statin therapy; assay: REDUCE-IT endpoints by pooled (icosapent ethyl and placebo) EPA blood level tertile; settings: FIG. 54; ITT pooled; tertiles ≤31.733, >31.733 to ≤120.175, >120.175 μg/mL
[5] = pooled, tertiles ≤31.305, >31.305 to ≤118.1, >118.1 μg/mL
[6] = FIG. 56, ITT pooled, tertiles ≤0.0857, >0.0857 to ≤0.4053, >0.4053
[7] = pooled, tertiles ≤0.084337, >0.084337 to ≤0.395187, >0.395187

CC/C=C\C/C=C\C/C=C\C/C=C\C/C=C\CCCC(=O)O [EPA, eicosapentaenoic acid]
primary endpoint HR, average achieved EPA >181 mg/L vs ≤181 mg/L [1]: 0.842 | primary composite endpoint RRR, highest vs lowest EPA tertile ([2]; FIG. 52, pooled): 43% | primary composite endpoint RRR, highest vs middle EPA tertile ([2]; FIG. 52, pooled): 30% | primary composite endpoint RRR, middle vs lowest EPA tertile ([2]; FIG. 52, pooled): 29% | primary composite endpoint HR, middle vs lowest EPA tertile ([2]; FIG. 54, ITT pooled, tertiles ≤31.733, >31.733 to ≤120.175, >120.175 μg/mL): 0.79 | primary endpoint HR, highest vs. lowest tertile ([2]; pooled placebo and icosapent ethyl, tertiles ≤31.305, >31.305 to ≤118.1, >118.1 μg/mL): 0.65 | key secondary endpoint HR, highest vs. lowest tertile [2, 5]: 0.61 | key secondary endpoint HR, highest vs. middle tertile [2, 5]: 0.78 | key secondary endpoint HR, middle vs. lowest tertile [2, 5]: 0.78 | primary endpoint HR, highest vs. middle tertile [2, 5]: 0.80 | primary endpoint HR, middle vs. lowest tertile [2, 5]: 0.81 | primary endpoint HR, highest vs. lowest EPA/AA tertile [3, 6]: 0.63 | primary endpoint HR, middle vs. lowest EPA/AA tertile [3, 6]: 0.79 | key secondary endpoint HR, highest vs. lowest EPA/AA tertile [3, 7]: 0.57 | key secondary endpoint HR, highest vs. middle EPA/AA tertile [3, 7]: 0.75 | key secondary endpoint HR, middle vs. lowest EPA/AA tertile [3, 7]: 0.76 | primary endpoint HR, highest vs. lowest EPA/AA tertile [3, 7]: 0.64 | primary endpoint HR, highest vs. middle EPA/AA tertile [3, 7]: 0.84 | primary endpoint HR, middle vs. lowest EPA/AA tertile [3, 7]: 0.77 | primary composite endpoint HR, high vs lowest EPA tertile [4]: 0.64
